Assays:
human TLR8 = biological target: T1, human TLR8 (Homo sapiens, UniProt Q9NR97); test: TLR8 inhibition reporter assay (HEK-Blue SEAP); type: cell-based; conditions: HEK-Blue cells overexpressing human TLR8, R848 15.9 μM, 22 hour incubation
T1 construct: host or cells: HEK-Blue cells
T1 sequence (Q9NR97 27-1041): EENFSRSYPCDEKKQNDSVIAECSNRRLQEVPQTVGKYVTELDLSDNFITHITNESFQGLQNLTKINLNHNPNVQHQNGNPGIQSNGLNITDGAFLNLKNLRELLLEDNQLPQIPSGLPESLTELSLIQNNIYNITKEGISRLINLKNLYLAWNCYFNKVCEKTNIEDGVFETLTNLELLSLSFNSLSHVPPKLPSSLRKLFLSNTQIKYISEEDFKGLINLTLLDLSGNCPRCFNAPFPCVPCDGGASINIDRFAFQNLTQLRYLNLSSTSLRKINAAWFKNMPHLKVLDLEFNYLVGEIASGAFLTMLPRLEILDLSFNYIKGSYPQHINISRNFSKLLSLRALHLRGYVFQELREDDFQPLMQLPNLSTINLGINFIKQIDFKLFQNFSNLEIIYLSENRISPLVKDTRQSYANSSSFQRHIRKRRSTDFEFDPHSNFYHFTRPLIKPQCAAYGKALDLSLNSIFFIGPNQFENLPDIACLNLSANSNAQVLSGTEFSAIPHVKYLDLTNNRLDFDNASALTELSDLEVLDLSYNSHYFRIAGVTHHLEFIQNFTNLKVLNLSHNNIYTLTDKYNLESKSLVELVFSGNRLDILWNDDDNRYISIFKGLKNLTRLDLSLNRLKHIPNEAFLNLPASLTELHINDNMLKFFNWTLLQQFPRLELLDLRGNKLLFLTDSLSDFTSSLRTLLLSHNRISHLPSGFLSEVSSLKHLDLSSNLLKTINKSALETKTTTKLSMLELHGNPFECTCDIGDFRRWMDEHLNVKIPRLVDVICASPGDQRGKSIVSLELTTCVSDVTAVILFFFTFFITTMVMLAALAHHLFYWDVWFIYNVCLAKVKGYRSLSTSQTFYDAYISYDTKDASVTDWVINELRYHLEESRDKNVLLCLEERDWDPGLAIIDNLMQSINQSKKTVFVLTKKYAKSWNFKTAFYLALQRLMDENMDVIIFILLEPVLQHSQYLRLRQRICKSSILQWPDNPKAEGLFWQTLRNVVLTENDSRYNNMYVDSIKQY
In short: (§1)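 Screening used HEK-Blue cells overexpressing one human TLR (7, 8 or 9) and an IFN-β minimal promoter–NF-κB/AP-1 SEAP construct. Stimulation lasted 22 h at 37 °C with receptor-specific agonist: gardiquimod, R848 or ODN2006 at 7.5 μM, 15.9 μM and 5 nM.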

human TLR9 = biological target: T2, human TLR9 (Homo sapiens, UniProt Q9NR96); test: TLR9 inhibition reporter assay (HEK-Blue SEAP); type: cell-based; conditions: HEK-Blue cells overexpressing human TLR9, ODN2006 5 nM, 22 hour incubation
T2 construct: host or cells: HEK-Blue cells
T2 sequence (Q9NR96 26-1032): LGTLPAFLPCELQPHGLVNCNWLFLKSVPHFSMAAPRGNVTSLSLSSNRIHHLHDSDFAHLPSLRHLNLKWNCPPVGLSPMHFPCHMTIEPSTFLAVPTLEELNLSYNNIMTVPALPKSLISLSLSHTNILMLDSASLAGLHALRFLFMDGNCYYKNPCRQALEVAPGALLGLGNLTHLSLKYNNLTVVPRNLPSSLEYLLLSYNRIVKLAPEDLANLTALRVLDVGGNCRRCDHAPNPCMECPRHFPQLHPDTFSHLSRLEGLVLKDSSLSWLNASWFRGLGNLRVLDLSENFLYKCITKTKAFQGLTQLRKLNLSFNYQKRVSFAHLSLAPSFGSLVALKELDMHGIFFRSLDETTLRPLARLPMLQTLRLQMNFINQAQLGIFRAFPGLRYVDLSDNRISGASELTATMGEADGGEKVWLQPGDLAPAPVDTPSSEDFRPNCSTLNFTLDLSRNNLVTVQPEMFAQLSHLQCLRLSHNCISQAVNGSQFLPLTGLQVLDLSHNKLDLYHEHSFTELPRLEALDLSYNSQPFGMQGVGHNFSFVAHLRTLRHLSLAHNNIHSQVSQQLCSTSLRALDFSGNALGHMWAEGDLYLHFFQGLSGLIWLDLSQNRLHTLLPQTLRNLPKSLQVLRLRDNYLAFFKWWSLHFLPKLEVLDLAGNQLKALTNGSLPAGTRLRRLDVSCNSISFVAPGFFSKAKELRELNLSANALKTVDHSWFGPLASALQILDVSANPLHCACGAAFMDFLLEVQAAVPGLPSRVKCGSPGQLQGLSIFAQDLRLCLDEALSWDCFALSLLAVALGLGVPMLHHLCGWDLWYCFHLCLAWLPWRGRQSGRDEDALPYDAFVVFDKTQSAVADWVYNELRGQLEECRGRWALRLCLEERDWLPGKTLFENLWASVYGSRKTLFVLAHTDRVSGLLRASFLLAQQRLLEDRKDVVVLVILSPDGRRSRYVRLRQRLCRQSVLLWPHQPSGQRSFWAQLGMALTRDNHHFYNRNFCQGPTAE
In short: as §1

Compound: COc1cc(-c2cc3[nH]c(=O)n([C@H]4CCCN(CCC(C)C)C4)c3cc2C(C)C)cn2ncnc12 [Example 132, (S)-1-(1-isopentylpiperidin-3-yl)-6-isopropyl-5-(8-methoxy-[1,2,4]triazolo[1,5-a]pyridin-6-yl)-1,3-dihydro-2H-benzo[d]imidazol-2-one]
- IC50 (human TLR8): 0.0101 µM
- IC50 (human TLR9): 11 µM

Compound: COCCN1CCC[C@@H](n2c(=O)[nH]c3cc(-c4cc(C)c5ncnn5c4)c(C)cc32)C1 [Example 97, (R)-1-(1-(2-methoxyethyl)piperidin-3-yl)-6-methyl-5-(8-methyl-[1,2,4]triazolo[1,5-a]pyridin-6-yl)-1,3-dihydro-2H-benzo[d]imidazol-2-one]
- IC50 (human TLR8): 0.0437 µM
- IC50 (human TLR9): 19.1 µM

Compound: COc1cc(-c2cc3[nH]c(=O)n([C@@H]4CCCN(C(C)C)C4)c3cc2C(C)C)cn2ncnc12 [Example 137, (R)-6-isopropyl-1-(1-isopropylpiperidin-3-yl)-5-(8-methoxy-[1,2,4]triazolo[1,5-a]pyridin-6-yl)-1,3-dihydro-2H-benzo[d]imidazol-2-one]
- IC50 (human TLR8): 0.00137 µM
- IC50 (human TLR9): 7.07 µM

Compound: COc1cc(-c2cc3[nH]c(=O)n([C@H]4CCCN(CC5CC5)C4)c3cc2C(C)C)cn2ncnc12 (single isomer, unassigned) [Example 128]
- IC50 (human TLR8): 0.00263 µM
- IC50 (human TLR9): > 50 µM

Compound: COc1cc(-c2cc3[nH]c(=O)n(C4CCN(CC(C)C)CC4)c3cc2C(C)C)cn2ncnc12 [Example 164, 1-(1-isobutylpiperidin-4-yl)-6-isopropyl-5-(8-methoxy-[1,2,4]triazolo[1,5-a]pyridin-6-yl)-1,3-dihydro-2H-benzo[d]imidazol-2-one]
- IC50 (human TLR8): 0.00967 µM
- IC50 (human TLR9): 17.2 µM

Compound: CCc1cc2c(cc1-c1cc(OC)c3ncnn3c1)[nH]c(=O)n2[C@H]1CC[C@@H](NC(C)C)CC1 [Example 167, 6-ethyl-1-((1s,4s)-4-(isopropylamino)cyclohexyl)-5-(8-methoxy-[1,2,4]triazolo[1,5-a]pyridin-6-yl)-1,3-dihydro-2H-benzo[d]imidazol-2-one]
- IC50 (human TLR8): 0.00082 µM
- IC50 (human TLR9): 16.6 µM

Compound: CCCN1CCC(n2c(=O)[nH]c3cc(-c4cc(OC)c5ncnn5c4)c(C(C)C)cc32)CC1 [Example 155, 6-isopropyl-5-(8-methoxy-[1,2,4]triazolo[1,5-a]pyridin-6-yl)-1-(1-propylpiperidin-4-yl)-1,3-dihydro-2H-benzo[d]imidazol-2-one]
- IC50 (human TLR8): 0.00956 µM
- IC50 (human TLR9): 11.9 µM

Compound: COc1cc(-c2cc3[nH]c(=O)n(C4CCN(C)CC4)c3cc2C(C)C)cn2ncnc12 [Example 154, 6-isopropyl-5-(8-methoxy-[1,2,4]triazolo[1,5-a]pyridin-6-yl)-1-(1-methylpiperidin-4-yl)-1,3-dihydro-2H-benzo[d]imidazol-2-one]
- IC50 (human TLR8): 0.00152 µM
- IC50 (human TLR9): 23.5 µM

Compound: COc1cc(-c2cc3[nH]c(=O)n([C@@H]4CCCN(CC5CC5)C4)c3cc2C(C)C)cn2ncnc12 [Example 142, (R)-1-(1-(cyclopropylmethyl)piperidin-3-yl)-6-isopropyl-5-(8-methoxy-[1,2,4]triazolo[1,5-a]pyridin-6-yl)-1,3-dihydro-2H-benzo[d]imidazol-2-one]
- IC50 (human TLR8): 0.0022 µM
- IC50 (human TLR9): 6.02 µM

Compound: CCCN1CCC[C@@H](n2c(=O)[nH]c3cc(-c4cc(OC)c5ncnn5c4)c(C(F)(F)F)cc32)C1 [Example 115, (R)-5-(8-methoxy-[1,2,4]triazolo[1,5-a]pyridin-6-yl)-1-(1-propylpiperidin-3-yl)-6-(trifluoromethyl)-1,3-dihydro-2H-benzo[d]imidazol-2-one]
- IC50 (human TLR8): 0.0144 µM
- IC50 (human TLR9): 13.4 µM

Compound: Cc1c(-c2cc3[nH]c(=O)n([C@@H]4CCCN(C(C)C)C4)c3cc2C(C)C)cn2ncnc2c1C [Example 145, (R)-5-(7,8-dimethyl-[1,2,4]triazolo[1,5-a]pyridin-6-yl)-6-isopropyl-1-(1-isopropylpiperidin-3-yl)-1,3-dihydro-2H-benzo[d]imidazol-2-one]
- IC50 (human TLR8): 0.0021 µM
- IC50 (human TLR9): 14.3 µM

Compound: COc1cc(-c2cc3[nH]c(=O)n(C4CCN(C5CCC5)CC4)c3cc2C(C)C)cn2ncnc12 [Example 156, 1-(1-cyclobutylpiperidin-4-yl)-6-isopropyl-5-(8-methoxy-[1,2,4]triazolo[1,5-a]pyridin-6-yl)-1,3-dihydro-2H-benzo[d]imidazol-2-one]
- IC50 (human TLR8): 0.00477 µM
- IC50 (human TLR9): 23.8 µM

Compound: COc1cc(-c2cc3[nH]c(=O)n([C@@H]4CCCN(C5COC5)C4)c3cc2C(F)(F)F)cn2ncnc12 [Example 113, (R)-5-(8-methoxy-[1,2,4]triazolo[1,5-a]pyridin-6-yl)-1-(1-(oxetan-3-yl)piperidin-3-yl)-6-(trifluoromethyl)-1,3-dihydro-2H-benzo[d]imidazol-2-one]
- IC50 (human TLR8): 0.113 µM
- IC50 (human TLR9): > 50 µM

Compound: COc1cc(-c2cc3[nH]c(=O)n(C4CCN(C(C)C)CC4)c3cc2C)cn2ncnc12 [Example 10, 1-(1-isopropylpiperidin-4-yl)-5-(8-methoxy-[1,2,4]triazolo[1,5-a]pyridin-6-yl)-6-methyl-1,3-dihydro-2H-benzo[d]imidazol-2-one]
- IC50 (human TLR8): 0.0897 µM
- IC50 (human TLR9): 0.354 µM

Compound: COc1cc(-c2cc3[nH]c(=O)n([C@H]4CCCN(C5CCOCC5)C4)c3cc2C(C)C)cn2ncnc12 [Example 124, (S)-6-isopropyl-5-(8-methoxy-[1,2,4]triazolo[1,5-a]pyridin-6-yl)-1-(1-(tetrahydro-2H-pyran-4-yl)piperidin-3-yl)-1,3-dihydro-2H-benzo[d]imidazol-2-one]
- IC50 (human TLR8): 0.00433 µM
- IC50 (human TLR9): 20.8 µM

Compound: CCC(CC)CN1CCC[C@@H](n2c(=O)[nH]c3cc(-c4cc(OC)c5ncnn5c4)c(C(F)(F)F)cc32)C1 [Example 117, (R)-1-(1-(2-ethylbutyl)piperidin-3-yl)-5-(8-methoxy-[1,2,4]triazolo[1,5-a]pyridin-6-yl)-6-(trifluoromethyl)-1,3-dihydro-2H-benzo[d]imidazol-2-one]
- IC50 (human TLR8): 0.0333 µM
- IC50 (human TLR9): 11.8 µM

Compound: COc1cc(-c2cc3[nH]c(=O)n(C4CCN(C(=O)CN(C)C)CC4)c3cc2C)cn2ncnc12 [Example 100, 1-(1-(2-(dimethylamino)acetyl)piperidin-4-yl)-5-(8-methoxy-[1,2,4]triazolo[1,5-a]pyridin-6-yl)-6-methyl-1H-benzo[d]imidazol-2(3H)-one]
- IC50 (human TLR8): 0.175 µM
- IC50 (human TLR9): 1.66 µM

Compound: Cc1c(-c2cc3[nH]c(=O)n([C@@H]4CCCN(CC5CCOCC5)C4)c3cc2C(C)C)cn2ncnc2c1C [Example 149, (R)-5-(7,8-dimethyl-[1,2,4]triazolo[1,5-a]pyridin-6-yl)-6-isopropyl-1-(1-((tetrahydro-2H-pyran-4-yl)methyl)piperidin-3-yl)-1,3-dihydro-2H-benzo[d]imidazol-2-one]
- IC50 (human TLR8): 0.00458 µM
- IC50 (human TLR9): 15.7 µM

— patent publication US12187723B2 (BRISTOL-MYERS SQUIBB COMPANY, priority 2019, dated 2025)
